From US11446352B2, “Compositions and methods for inhibiting tumor-induced immune suppression” (priority 2017, dated 2022)

Columns and labels:
[1] = system: E0771 tumor microenvironment; test: analysis of tumors and splenocytes from EnnA-treated mice (Western blot, FACS, immunohistochemistry, immunofluorescence); assay type: in vivo
Experimental: FIG. 5A is a line graph of tumor volume (mm^3) versus time (days) of mice injected with 100,000 E0771. Ten days after surgery, mice were divided into two groups: the EnnA group was injected with 10 mg/kg of EnnA. every other day, and the control group received a mixture of 15% DMSO and 20% cremophor in PBS. FIG. 5B is a line graph of body weight versus time (days) of mice treated with DMSO or EnnA. FIG. 5C is autoradiograph of a Western blot of four animals from each group using the indicated specific antibodies. FIG. 5D is a bar graph of % of gated cells treated with DMSO or EnnA showing FACS analysis of tumor cells for PDL1. FIG. 5E-5J is a panel of micrographs showing immunohistochemistry analysis of H&E staining of tumors from control and EnnA mice for analysis of necrotic tissue. FIGS. 5K-5P is a panel of micrographs showing immunohistochemistry analysis of tumors from control and EnnA mice for analysis of immune cells infiltration using anti-CD45 antibody. FIG. 5Q is a bar graph of % of gated cells treated with DMSO showing that EnnA treatment reduces CD4+/Foxp3+ Tregs. FIG. 5R is a bar graph of % of gated cells treated with DMSO or EnnA showing that EnnA treatment reduces CD11b+Gr-1+ MDSCs. FIG. 5S is a bar graph of % of gated cells treated with DMSO or EnnA showing that EnnA treatment reduces the number of CD8+/PD-1+ lymphocytes. FIG. 5T is a bar graph of % of cells treated with DMSO or EnnA showing that EnnA treatment increase the number of GR-1-CD11c+CD103+ lymphocytes.
FIGS. 8A-8L show immunofluorescent staining of E0771 tumors using anti-CD45 and anti-CD8β antibodies. FIGS. 8M-8T show immunofluorescent staining of E0771 tumors using anti-CD45 and anti-CTLA-4 antibodies. […] FIG. 8V is a bar graph showing the results of FACS analysis of CD8 positive cells in E0771 tumor-bearing mice treated with DMSO, EnnA, αCD8, or EnnA+αCD8. The X axis represents treatment group and the Y axis represents percent CD8 positive cells. FIG. 8W is a model for EnnA inhibition of Hsp 90 machinery and its impacts on the immune suppressive mechanism through PD-1 and IDO.
100,000 E0771 cells were surgically implanted in mammary fat pad of 20 mice. Ten days after surgery, mice were divided into two groups: the EnnA group was injected with 10 mg/kg of EnnA every other day, and the control group received a mixture of 15% DMSO and 20% cremophor in PBS.

E0771 tumors = test: E0771 tumor model in immunocompromised nude mice; assay type: in vivo; conditions: 10 mg/kg every other day
Experimental: 50,000 E0771 cells were surgically implanted in mammary fad pad of 10 C57BL/6 immunocompetent mice and 10 immunocompromised nude mice. 12 days after surgery, B6 and nude mice were divided into two groups each. the EnnA group was injected with 10 mg/kg of EnnA every other day, and the control group received a mixture of 15% DMSO and 20% cremophor in PBS.

IDO-GFP fusion protein = assay type: cell-based; conditions: HEK 293 cells
Experimental: (§1) FIG. 3A-3B are autoradiographs of a Western blot showing expression of the indicated proteins in control (left lane) and 0.5 μM EnnA-treated (right lane) E0771 (FIG. 3A) and AT3 (FIG. 3B) cells. FIG. 3C is a graph showing FACS analysis of PD-L1 level in AT3 cells. FIGS. 3D-3K are graphs showing qPCR analysis of the mRNA level of cytokines TNFa (FIG. 3D), IL-6 (FIG. 3E), TGFb1 (FIG. 3F) and IL-10 (FIG. 3G), the chemokines S100a9 (FIG. 3J) and CCL3 (FIG. 3K), as well as PDL1 (FIG. 3H) and IDO (FIG. 3I). FIGS. 3L-3Q are micrographs of HEK293 cells transiently transfected with GFP-IDO fusion protein expressing or GFP alone plasmids for 24 h. Cells were then treated with 5 μM EnnA for 6 h and analyzed for green fluorescence and bright light. FIG. 3R is a line graph of μg/ml of tryptophan and its IDO-mediated product kynurenine using the previously reported HPLC-based assay.
(§2) Western blot analysis (FIG. 3A-3B) confirmed that EnnA destabilizes pAKT and reduces the protein expression of Hsp40 in E0771 and AT3. […] It also reduces the mRNA level of the chemokines S100a9 and CCL3 (FIG. 3J-3K). Importantly, EnnA reduces the mRNA and protein levels of the key immunological checkpoint component PDL-1 (FIG. 3H). Similar results were obtained with EMT6 (not shown). […]

IDO = test: HPLC-based assay of tryptophan and kynurenine in culture media; assay type: cell-based; conditions: HEK 293 cells expressing IDO-GFP
Experimental: as §1, §2

CC[C@H](C)[C@H]1C(=O)O[C@H](C(C)C)C(=O)N(C)[C@@H]([C@@H](C)CC)C(=O)O[C@H](C(C)C)C(=O)N(C)[C@@H]([C@@H](C)CC)C(=O)O[C@H](C(C)C)C(=O)N1C [EnnA, Enniatin A]
PD-1 expression of infiltrating CD8+ lymphocytes ([1]; FACS): lower levels
number of CD4+Foxp3+ T regulatory cells (Tregs) in tumors ([1]; FACS): significantly reduced
number of MDSCs in tumors ([1]; FACS, CD11b+Gr-1+): significantly reduced
number of GR-1-CD11c+CD103+ lymphocytes ([1]; FACS, FIG. 5T): increase
tumor necrosis ([1]; H&E staining): heavily necrotic
Hsp90 client proteins in tumors ([1]; Western blot of tumors from treated mice): destabilized
infiltration of tumors by T lymphocytes ([1]; anti-CD45 immunohistochemistry): massive infiltration
infiltration of tumors with CD45+, CD8β+ T cells ([1]; immunofluorescent staining): higher infiltration
proportion of CD8β cells in spleenocytes ([1]; tumor bearing animals, FACS): increase
PD-L1 and IDO in vivo ([1]; tumors, Western blot and FACS): destabilizes
anti-tumor activity (tumor volume) (E0771 tumors): no significant anti-tumor activity
IDO-GFP green fluorescence (IDO-GFP fusion protein; 5 μM EnnA, 6 h): dramatic loss
cell death (IDO-GFP fusion protein; early time point (6 h)): No significant cell death
IDO enzymatic activity (tryptophan accumulation, kynurenine reduction in culture media) (IDO): loss of IDO enzymatic activity
